{"source": "patent US20070202158A1", "about": "“Methods Of Administering Water-Soluble Prodrugs Of Propofol For Extended Sedation” (MGI GP, Inc., priority 2003, published 2007)", "key": {"[1]": {"test": "Plasma concentration of propofol derived from the test prodrug in rats (Table I)", "type": "in vivo", "conditions": "rat; for F_Cmax / F_AUCt: relative to 5 mg/kg IV; for AUCt / Cmax: propofol in plasma; for AUCt: 0-360 min", "description": "Upon administration, the test prodrug is converted in the body into propofol, its pharmacologically active metabolite. The pharmacokinetic profile, i.e. the blood plasma concentration of propofol derived from the test prodrug, was assessed in a separate experiment. Male Sprague-Dawley Rats (225-250 g) were obtained with indwelling jugular or intraduodenal catheters (Hilltop Labs, PA). On the day of testing, control blood samples were taken from the jugular vein prior to dosing. O-phosphonooxymethyl propofol disodium salt was then dosed in different concentrations in groups of 2-3 rats. The test prodrug was administered either by the oral, intravenous or intraduodenal routes. Blood samples (0.5 ml) were taken at 5, 15, 30, 45, 60, 120, 240 and 360 min after administration of the test prodrug. Blood samples were centrifuged to obtain plasma and stored frozen until analysis. The outcome of this experiment is depicted in the following table I:\n“Cmax” is the mean maximum plasma concentration; “F Cmax” is the calculated mean bioavailability of the Cmax for propofol generated from the tested prodrug (as administered via various routes and at various doses), relative to an intravenous dose of 5 mg/kg at Cmax; “AUCt” is the mean area under the curve from time 0 to the last measured time point (360 min); “F AUCt” is the calculated mean bioavailability for AUCt. “Bioavailability” is the quotient, expressed as per cent, of the Cmax or AUCt for intragastric (po) or intraduodenal (GB) administration, and the Cmax or AUCt for a 5 mg/kg intravenous dose, adjusted for dose. […] This transformation provides a reasonable measure to compare the systemic exposure to propofol generated from the test compound (after administration of various doses by various routes) to systemic propofol exposure after I.V. administration of the prodrug."}, "[2]": {"tested_on": "Sprague-Dawley rats", "test": "Behavioral sedation rating (scale 0-4) in rats after oral, intravenous or intraduodenal prodrug", "type": "in vivo, rat", "from_the_text": "This example compares the dose-dependent pharmacological effects of a propofol prodrug of Formula I, O-phosphonooxymethyl propofol disodium salt, on rats when administered in a single oral dose to the pharmacological effects observed after an equipotent intravenous infusion. Young adult male Sprague-Dawley rats (250-300 g, Charles River Laboratories) received oral doses of vehicle (0.12% Tris/0.25% monothioglycerol/saline; n=4, per oral gavage) or of O-phosphonooxy-methyl propofol disodium salt at doses of 100, 200, 300 and 400 mg/kg, dissolved in vehicle at 35 mg/ml (n=2 per dose) or 200 mg/ml w/v (n=2 per dose).\nThe above-described pharmacological effects of oral administration of the tested prodrug were compared with those caused by an equipotent intravenous infusion: Under halothane anesthesia, young adult rats received femoral vein catheters which were exteriorized and attached to a liquid swivel via a protectant spring. About 20 minutes after catheterization, and after full behavioral recovery from halothane anesthesia, each animal was attached to an electronic infusion pump and was administered vehicle, or 5, 10, 20, 30, or 40 mg/kg of the test prodrug (n=2 per dose) in 1 ml total volume by gradual constant-rate intravenous infusion over 10 minutes. Behavioral rating as described above began immediately following the end of infusion.\nThe above-described efficacy of the tested prodrug when administered orally or intravenously was compared to a mode of administration that allows for the introduction of the prodrug directly into the gut. For this “gastric bypass” experiment, young adult male Sprague Dawley rats (225-250 g body wt.) underwent implantation of intraduodenal catheters to allow for intraduodenal instillation of an aqueous buffered solution of the prodrug. Following full recovery from catheter implantation surgery, various concentrations of O-phosphonooxymethyl propofol disodium salt in vehicle, or vehicle alone, were administered via the catheter in a constant volume of 2 ml/kg body weight to yield doses of 0, 20, 30, 50, 100, 200, 300, and 400 mg/kg body weight (n=2 per dose). Behavioral assessment was conducted as described above. […] The depth and duration of sedation, and the length of unconsciousness in the higher dose groups, depended on the administered dose."}}}
{"smiles": "CC(C)c1cccc(C(C)C)c1OCOP(=O)([O-])[O-].[Na+].[Na+]", "note": "[O-phosphonooxymethyl propofol disodium salt]", "values": [{"measurement": "F_Cmax", "setting": "[1]; Gb (intraduodenal) 1 mg/kg", "result": 14.4, "unit": "%"}, {"measurement": "F_AUCt", "setting": "[1]; Gb (intraduodenal) 3 mg/kg", "result": 9.34, "unit": "%"}, {"measurement": "F_Cmax", "setting": "[1]; Gb (intraduodenal) 3 mg/kg", "result": 27.3, "unit": "%"}, {"measurement": "F_AUCt", "setting": "[1]; Gb (intraduodenal) 10 mg/kg", "result": 27.4, "unit": "%"}, {"measurement": "F_Cmax", "setting": "[1]; Gb (intraduodenal) 10 mg/kg", "result": 35.0, "unit": "%"}, {"measurement": "F_AUCt", "setting": "[1]; Gb (intraduodenal) 30 mg/kg", "result": 55, "unit": "%"}, {"measurement": "F_Cmax", "setting": "[1]; Gb (intraduodenal) 30 mg/kg", "result": 74.0, "unit": "%"}, {"measurement": "F_AUCt", "setting": "[1]; Gb (intraduodenal) 100 mg/kg", "result": 161, "unit": "%"}, {"measurement": "F_Cmax", "setting": "[1]; Gb (intraduodenal) 100 mg/kg", "result": 102, "unit": "%"}, {"measurement": "F_AUCt", "setting": "[1]; I.V. 5 mg/kg", "result": 100, "unit": "%"}, {"measurement": "F_Cmax", "setting": "[1]; I.V. 5 mg/kg", "result": 100, "unit": "%"}, {"measurement": "F_AUCt", "setting": "[1]; I.V. 50 mg/kg", "result": 117.9, "unit": "%"}, {"measurement": "F_Cmax", "setting": "[1]; I.V. 50 mg/kg", "result": 86.7, "unit": "%"}, {"measurement": "bioavailability of propofol liberated from the prodrug (in words)", "setting": "[1]; gastric bypass", "result": "markedly enhanced"}, {"measurement": "F_AUCt", "setting": "[1]; p.o. 20 mg/kg", "result": 13.3, "unit": "%"}, {"measurement": "F_Cmax", "setting": "[1]; p.o. 20 mg/kg", "result": 3.72, "unit": "%"}, {"measurement": "F_AUCt", "setting": "[1]; p.o. 50 mg/kg", "result": 22.2, "unit": "%"}, {"measurement": "F_Cmax", "setting": "[1]; p.o. 50 mg/kg", "result": 4.65, "unit": "%"}, {"measurement": "F_Cmax", "setting": "[1]; p.o. 100 mg/kg", "result": 9.20, "unit": "%"}, {"measurement": "F_AUCt", "setting": "[1]; p.o. 100 mg/kg, disodium salt", "result": 53.2, "unit": "%"}, {"measurement": "F_AUCt", "setting": "[1]; p.o. 100 mg/kg, listed as test compound, disodium salt", "result": "above 50%"}, {"measurement": "Cmax bioavailability of propofol (F Cmax, in words)", "setting": "[1]; p.o. 20, 50 and 100 mg/kg", "result": "limited at all tested dose levels"}, {"measurement": "AUCt", "setting": "[1]; Gb (intraduodenal) 3 mg/kg", "result": 0.389, "unit": "µg·min/mL"}, {"measurement": "AUCt", "setting": "[1]; Gb (intraduodenal) 10 mg/kg", "result": 3.81, "unit": "µg·min/mL"}, {"measurement": "AUCt", "setting": "[1]; Gb (intraduodenal) 30 mg/kg", "result": 22.9, "unit": "µg·min/mL"}, {"measurement": "AUCt", "setting": "[1]; Gb (intraduodenal) 100 mg/kg", "result": 223, "unit": "µg·min/mL"}, {"measurement": "AUCt", "setting": "[1]; I.V. 5 mg/kg", "result": 6.94, "unit": "µg·min/mL"}, {"measurement": "AUCt", "setting": "[1]; I.V. 50 mg/kg", "result": 81.8, "unit": "µg·min/mL"}, {"measurement": "AUCt", "setting": "[1]; p.o. 20 mg/kg", "result": 3.70, "unit": "µg·min/mL"}, {"measurement": "AUCt", "setting": "[1]; p.o. 50 mg/kg", "result": 15.4, "unit": "µg·min/mL"}, {"measurement": "AUCt", "setting": "[1]; p.o. 100 mg/kg", "result": 73.8, "unit": "µg·min/mL"}, {"measurement": "Cmax", "setting": "[1]; Gb (gastric bypass, intraduodenal) 1 mg/kg", "result": 8.26, "unit": "ng/mL"}, {"measurement": "Cmax", "setting": "[1]; Gb (intraduodenal) 3 mg/kg", "result": 46.8, "unit": "ng/mL"}, {"measurement": "Cmax", "setting": "[1]; Gb (intraduodenal) 10 mg/kg", "result": 200, "unit": "ng/mL"}, {"measurement": "Cmax", "setting": "[1]; Gb (intraduodenal) 30 mg/kg", "result": 1270, "unit": "ng/mL"}, {"measurement": "Cmax", "setting": "[1]; Gb (intraduodenal) 100 mg/kg", "result": 5840, "unit": "ng/mL"}, {"measurement": "Cmax", "setting": "[1]; I.V. 5 mg/kg", "result": 286, "unit": "ng/mL"}, {"measurement": "Cmax", "setting": "[1]; I.V. 50 mg/kg", "result": 2480, "unit": "ng/mL"}, {"measurement": "Cmax", "setting": "[1]; p.o. 20 mg/kg", "result": 42.6, "unit": "ng/mL"}, {"measurement": "Cmax", "setting": "[1]; p.o. 50 mg/kg", "result": 133, "unit": "ng/mL"}, {"measurement": "Cmax", "setting": "[1]; p.o. 100 mg/kg", "result": 526, "unit": "ng/mL"}, {"measurement": "biological potency of the peak effect, oral/intragastric relative to intravenous administration", "setting": "[2]", "result": "approximately 10%"}, {"measurement": "intraduodenal dose causing a pharmacological effect substantially similar to 40 mg/kg intravenous", "setting": "[2]; FIG. 3 vs 4", "result": 50, "unit": "mg/kg"}, {"measurement": "intraduodenal dose causing a pharmacological effect substantially similar to 400 mg/kg intragastrally", "setting": "[2]; FIGS. 1, 2 vs 4", "result": 100, "unit": "mg/kg"}, {"measurement": "intraduodenal dose expected to cause an effect substantially similar to IV 20-30 mg/kg", "setting": "[2]; extrapolated from FIGS. 1-4", "result": "about 40 mg/kg"}, {"measurement": "onset of sedative effect", "setting": "[2]; intraduodenal 20-400 mg/kg", "result": "Within five minutes"}, {"measurement": "behavioral effect following onset of sedation", "setting": "[2]; intraduodenal, higher dose groups", "result": "loss of consciousness in the higher dose groups"}, {"measurement": "behavioral effect", "setting": "[2]; intravenous infusion 5-40 mg/kg over 10 minutes", "result": "rapid-onset dose-dependent sedated/anesthetized state"}, {"measurement": "duration of sedated/anesthetized state", "setting": "[2]; intravenous vs oral administration", "result": "shorter durations as compared to oral administration"}, {"measurement": "oral bioavailability (conclusion of study)", "setting": "[2]; oral", "result": "orally bioavaliable"}, {"measurement": "behavioral effect compared to vehicle", "setting": "[2]; oral 100-200 mg/kg", "result": "mild to moderate sedation"}, {"measurement": "duration of mild to moderate sedation", "setting": "[2]; oral 100-200 mg/kg, printed 'and longer'", "result": "1 to 2", "unit": "h"}, {"measurement": "behavioral effect following onset of sedation", "setting": "[2]; oral 300 and 400 mg/kg dose groups", "result": "loss of consciousness"}, {"measurement": "onset of sedated behavior after dosing", "setting": "[2]; oral gavage 100-400 mg/kg", "result": "5 to 10", "unit": "min"}, {"measurement": "duration of loss of consciousness", "setting": "[2]; oral, highest dose group", "result": "up to 1 hour"}, {"measurement": "onset of sedated behavior after oral gavage", "setting": "[2]; oral/intragastric, 35 mg/ml w/v aqueous solution, FIG. 1", "result": "5 to 20", "unit": "min"}]}
